{
  "source": "paper PMC3139112",
  "about": "(Journal of molecular biology, 2011)",
  "data": [
    {"molecular_target": "A3G (APOBEC3G) (Homo sapiens, UniProt Q9HC16)", "sequence (Q9HC16 whole entry)": "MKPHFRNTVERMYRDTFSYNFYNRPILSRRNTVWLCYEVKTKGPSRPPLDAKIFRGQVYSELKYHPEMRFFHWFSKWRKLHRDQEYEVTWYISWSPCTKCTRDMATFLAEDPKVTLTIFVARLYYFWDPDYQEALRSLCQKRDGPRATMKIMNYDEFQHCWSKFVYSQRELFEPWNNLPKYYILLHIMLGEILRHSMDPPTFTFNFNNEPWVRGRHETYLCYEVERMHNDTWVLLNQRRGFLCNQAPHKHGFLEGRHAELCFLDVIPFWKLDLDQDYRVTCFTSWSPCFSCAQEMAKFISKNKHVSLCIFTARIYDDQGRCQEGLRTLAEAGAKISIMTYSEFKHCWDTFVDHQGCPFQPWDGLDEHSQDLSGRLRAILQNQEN", "assay_type": "biochemical", "conditions": "1 μM peptide (Fig. 3B)", "values": [
      {"sequence": "DCFSESAIRNAILGH [Vif113-127]", "inhibition of A3G deaminase activity (peptide screen)": "inhibited the A3G deaminase activity"},
      {"sequence": "DLADQLIHLYYFDCF [Vif101-115]", "inhibition of A3G deaminase activity (peptide screen)": "inhibited the A3G deaminase activity"},
      {"sequence": "GWFYRHHYESTHPRI [Vif37-51]", "inhibition of A3G deaminase activity (peptide screen)": "inhibited the A3G deaminase activity"},
      {"sequence": "IVWQVDRMRIRTWKS [Vif9-23]", "inhibition of A3G deaminase activity (peptide screen)": "inhibited the A3G deaminase activity"}
    ]}
  ]
}
